Experimental data from patent publication US8889704B2 (Array BioPharma Inc., priority 2011, dated 2014).
Structures can show the parent of a compound that is named as a salt.

Experiments:
Type in all cases: biochemical
recombinant rat PIM-3 = recombinant rat PIM-3 (Rattus norvegicus, UniProt O70444); test: PIM-3 Assay (as Example A); settings: averaged IC50; 30 μM ATP, 3.75 μM PIM2tide, 0.5 nM PIM-3
Protocol: (§1) The assay for the determination of PIM-1 activity is based on the incorporation of [^33P]PO4 from [γ-^33P]ATP into PIM2tide substrate and capture of the radiolabeled peptide onto a Whatman P81 (phosphocellulose) filter plate. The amount of radiolabeled product is then measured by liquid scintillation counting. The final buffer conditions were as follows: 20 mM K^+MOPS, pH 7.4, 10 mM MgCl2, 0.005% Tween-20, 1 mM DTT. Assay mixtures contained 35 μM [γ-^33P]ATP (20 μCi/mL), 7.5 μM PIM2tide and 0.25 nM PIM-1 in a total volume of 50 μL. Incubations were carried out for 60 min at 22° C. and quenched with 75 μL of 200 mM H3PO4, filtered through a Whatman P81 plate and washed (1×200 μL and 5×100 μL) with 200 mM H3PO4. Fifty μL of liquid scintillation cocktail were then added per well, and the plate was counted for 30 s/well using a TopCount NXT.
(§2) Compounds were prepared at 50× the final concentration in DMSO by conducting 3-fold serial dilutions from a 500-μM intermediate dilution to give a 10-point dosing curve having a high dose of 10 μM. One-μL aliquots of these were then transferred to the assay mixtures above to give a final concentration of DMSO of 2%. A standard or reference compound was typically included on each assay plate to validate that plate. For each plate, percent of control (POC) values were calculated for each well. IC50 values were estimated from the POC values using a standard 4-parameter logistic model. The IC50 is defined as the concentration of inhibitor at which the POC equals 50 for the fitted curve.
Assay was performed as described in Example A, using 30 μM [γ-^33P]ATP (20 μCi/mL), 3.75 μM PIM2tide and 0.5 nM recombinant rat PIM-3 in place of PIM-1.

[1] = biological target: T1, GST-tagged recombinant full-length human Pim-2 (Homo sapiens, UniProt Q9P1W9); test: PIM-2 Assay (as Example A); settings: averaged IC50; 4 μM ATP, 1.0 μM PIM2tide, 1.5 nM Pim-2
T1 construct: GST-tagged recombinant full-length human Pim-2; GST
Protocol: as §1, §2
Assay was performed as described in Example A, using 4 μM [γ-^33P]ATP (20 μCi/mL), 1.0 μM PIM2tide and 1.5 nM GST-tagged recombinant full-length human Pim-2 in place of PIM-1.

PIM-1 = PIM-1 (Homo sapiens, UniProt P11309); test: Enzyme PIM-1 Assay ([33P]ATP incorporation into PIM2tide, filter plate); settings: averaged IC50; 35 μM ATP, 7.5 μM PIM2tide, 0.25 nM PIM-1, 60 min at 22° C.
Protocol: as §1, §2

T1 sequence (Q9P1W9 whole entry): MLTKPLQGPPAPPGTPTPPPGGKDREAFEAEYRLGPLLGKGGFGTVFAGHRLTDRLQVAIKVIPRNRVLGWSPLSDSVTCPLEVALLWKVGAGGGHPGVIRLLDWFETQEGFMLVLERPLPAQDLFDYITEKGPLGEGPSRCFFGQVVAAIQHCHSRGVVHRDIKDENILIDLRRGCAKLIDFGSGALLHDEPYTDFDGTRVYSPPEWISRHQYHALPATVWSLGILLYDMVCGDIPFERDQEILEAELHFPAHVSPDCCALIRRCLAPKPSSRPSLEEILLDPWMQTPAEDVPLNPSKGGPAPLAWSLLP
Sequence of PIM-1 (P11309 whole entry, species assumed): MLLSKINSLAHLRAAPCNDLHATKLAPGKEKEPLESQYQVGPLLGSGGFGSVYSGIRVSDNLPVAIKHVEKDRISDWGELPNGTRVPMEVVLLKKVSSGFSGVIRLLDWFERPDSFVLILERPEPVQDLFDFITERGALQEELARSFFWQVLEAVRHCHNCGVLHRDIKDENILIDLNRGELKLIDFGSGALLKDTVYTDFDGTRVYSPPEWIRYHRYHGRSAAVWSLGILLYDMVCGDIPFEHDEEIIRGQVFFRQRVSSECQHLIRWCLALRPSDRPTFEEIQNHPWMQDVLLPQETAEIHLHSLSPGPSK

Row | IC50 (recombinant rat PIM-3) [nM] | IC50 [1] [nM] | IC50 (PIM-1) [nM] | Structure (SMILES)
1 | 0.5 | 172 | 0.25 | N[C@H]1CCN(C(c2ccc3nnc(-c4ccc5ccc(-c6cccnc6)cc5n4)n3c2)C(F)(F)F)C1 (stereo partly drawn) [Example 18, (3S)-1-(2,2,2-trifluoro-1-(3-(7-(pyridin-3-yl)quinolin-2-yl)-[1,2,4]triazolo[4,3-a]pyridin-6-yl)ethyl)pyrrolidin-3-amine tri-hydrochloride]
2 | 25 | > 1000 | 2.38 | COc1cccc2ccc(-c3nnc4ccc(C(N5C[C@H](O)[C@@H](O)C5)C(F)(F)F)cn34)nc12 (stereo partly drawn) [Example 19, (3S,4S)-1-(2,2,2-trifluoro-1-(3-(8-methoxyquinolin-2-yl)-[1,2,4]triazolo[4,3-a]pyridin-6-yl)ethyl)pyrrolidine-3,4-diol]
3 | 3.3 | 131 | 0.35 | CN[C@H]1CCN(C(c2ccc3nnc(-c4ccc5cccc(OCC6CC6)c5n4)n3c2)C(F)(F)F)C1 (stereo partly drawn) [Example 20, (3S)-1-(1-(3-(8-(Cyclopropylmethoxy)quinolin-2-yl)-[1,2,4]triazolo[4,3-a]pyridin-6-yl)-2,2,2-trifluoroethyl)-N-methylpyrrolidin-3-amine dihydrochloride]
4 | 46 | 427 | 1.14 | NC[C@H]1CCN(C(c2ccc3nnc(-c4ccc5cccc(OCC6CC6)c5n4)n3c2)C(F)(F)F)C1 (stereo partly drawn) [Example 21, ((3R)-1-(1-(3-(8-(cyclopropylmethoxy)quinolin-2-yl)-[1,2,4]triazolo[4,3-a]pyridin-6-yl)-2,2,2-trifluoroethyl)pyrrolidin-3-yl)methanamine dihydrochloride]
5 | 76 | 935 | 2.01 | NC[C@@H]1CCN(C(c2ccc3nnc(-c4ccc5cccc(OCC6CC6)c5n4)n3c2)C(F)(F)F)C1 (stereo partly drawn) [Example 24, ((3S)-1-(1-(3-(8-(cyclopropylmethoxy)quinolin-2-yl)-[1,2,4]triazolo[4,3-a]pyridin-6-yl)-2,2,2-trifluoroethyl)pyrrolidin-3-yl)methanamine dihydrochloride]
6 | 5.1 | 86 | 0.8 | FC(F)(F)C(c1ccc2nnc(-c3ccc4cccc(OCC5CC5)c4n3)n2c1)N1C[C@H]2C[C@@H]1CN2 (stereo partly drawn) [Example 25, 2-(6-(1-((1R,4R)-2,5-diazabicyclo[2.2.1]heptan-2-yl)-2,2,2-trifluoroethyl)-[1,2,4]triazolo[4,3-a]pyridin-3-yl)-8-(cyclopropylmethoxy)quinoline dihydrochloride]
7 | > 100 | 796 | 2.12 | N[C@@H]1[C@H]2CN(C(c3ccc4nnc(-c5ccc6cccc(OCC7CC7)c6n5)n4c3)C(F)(F)F)C[C@@H]12 (stereo partly drawn) [Example 26, (1R,5S,6S)-3-(1-(3-(8-(cyclopropylmethoxy)quinolin-2-yl)-[1,2,4]triazolo[4,3-a]pyridin-6-yl)-2,2,2-trifluoroethyl)-3-azabicyclo[3.1.0]hexanesan-6-amine dihydrochloride]
8 | 25 | 334 | 0.8 | CC1(N)CCN(C(c2ccc3nnc(-c4ccc5cccc(OCC6CC6)c5n4)n3c2)C(F)(F)F)C1 (stereo not drawn) [Example 27, 1-(1-(3-(8-(cyclopropylmethoxy)quinolin-2-yl)-[1,2,4]triazolo[4,3-a]pyridin-6-yl)-2,2,2-trifluoroethyl)-3-methylpyrrolidin-3-amine dihydrochloride]
9 | 8.2 | > 1000 | 1.08 | CC1(N)CCN(C(c2ccc3nnc(-c4ccc5cccc(O)c5n4)n3c2)C(F)(F)F)C1 (stereo not drawn) [Example 28, 2-(6-(1-(3-amino-3-methylpyrrolidin-1-yl)-2,2,2-trifluoroethyl)-[1,2,4]triazolo[4,3-a]pyridin-3-yl)quinolin-8-ol dihydrochloride]
10 | 47 | > 1000 | 5.12 | N[C@H]1CCN(C(c2ccc3nnc(-c4ccc5ccc(C(F)(F)F)cc5n4)n3c2)C(F)(F)F)C1 (stereo partly drawn) [Example 29, (3S)-1-(2,2,2-trifluoro-1-(3-(7-(trifluoromethyl)quinolin-2-yl)-[1,2,4]triazolo[4,3-a]pyridin-6-yl)ethyl)pyrrolidin-3-amine dihydrochloride]
11 | 0.9 | 63 | 0.32 | CC(C)NC(=O)c1ccc2ccc(-c3nnc4ccc(C(N5CC[C@H](N)C5)C(F)(F)F)cn34)nc2c1 (stereo partly drawn) [Example 30, 2-(6-(1-((S)-3-aminopyrrolidin-1-yl)-2,2,2-trifluoroethyl)-[1,2,4]triazolo[4,3-a]pyridin-3-yl)-N-isopropylquinoline-7-carboxamide dihydrochloride]
12 | 0.4 | 23 | 0.08 | CC(C)Oc1cccc2ccc(-c3nnc4ccc([C@@H](N5CC[C@H](N)C5)C(F)(F)F)cn34)nc12 [Example 31, (S)-1-((R)-2,2,2-trifluoro-1-(3-(8-isopropoxyquinolin-2-yl)-[1,2,4]triazolo[4,3-a]pyridin-6-yl)ethyl)pyrrolidin-3-amine dihydrochloride]
13 | 10 | 266 | 0.53 | CC(C)N[C@H]1CCN(C(c2ccc3nnc(-c4ccc5cccc(OCC6CC6)c5n4)n3c2)C(F)(F)F)C1 (stereo partly drawn) [Example 32, (3S)-1-(1-(3-(8-(cyclopropylmethoxy)quinolin-2-yl)-[1,2,4]triazolo[4,3-a]pyridin-6-yl)-2,2,2-trifluoroethyl)-N-isopropylpyrrolidin-3-amine dihydrochloride]
14 | 5.9 | 759 | 1.41 | COC[C@@H](C)Oc1cccc2ccc(-c3nnc4ccc(C(C)N5CC[C@H](N)C5)cn34)nc12 (stereo partly drawn) [Example 33, (3S)-1-(1-(3-(8-((R)-1-methoxypropan-2-yloxy)quinolin-2-yl)-[1,2,4]triazolo[4,3-a]pyridin-6-yl)ethyl)pyrrolidin-3-amine trihydrochloride]
15 | 0.3 | 41 | 0.2 | CC(C)NC(=O)c1ccc2ccc(-c3nnc4ccc([C@@H](N5CC[C@H](N)C5)C(F)(F)F)cn34)nc2c1 [Example 34, 2-(6-((R)-1-((S)-3-aminopyrrolidin-1-yl)-2,2,2-trifluoroethyl)-[1,2,4]triazolo[4,3-a]pyridin-3-yl)-N-isopropylquinoline-7-carboxamide dihydrochloride]
16 | 39 | > 1000 | 4.52 | CN(C)C(=O)c1ccc2ccc(-c3nnc4ccc([C@@H](N5CC[C@H](N)C5)C(F)(F)F)cn34)nc2c1 [Example 35, 2-(6-((R)-1-((S)-3-aminopyrrolidin-1-yl)-2,2,2-trifluoroethyl)-[1,2,4]triazolo[4,3-a]pyridin-3-yl)-N,N-dimethylquinoline-7-carboxamide dihydrochloride]
17 | 2 | 32 | 0.18 | CN[C@H]1CCN([C@H](c2ccc3nnc(-c4ccc5cccc(OC(C)C)c5n4)n3c2)C(F)(F)F)C1 [Example 36, (S)—N-methyl-1-((R)-2,2,2-trifluoro-1-(3-(8-isopropoxyquinolin-2-yl)-[1,2,4]triazolo[4,3-a]pyridin-6-yl)ethyl)pyrrolidin-3-amine dihydrochloride]
